The compounds below were run against IRE-1α (Homo sapiens (Human), UniProt O75460) (assay: Cellular EC50: endogenous XBP-1 splicing in myeloma cells (MM.1s, DTT stress, RT-PCR)). Conditions: average cellular EC50, XBP-1 splicing in myeloma cells.
Type: cell-based
Experimental: Human myeloma MM.1s cells are incubated with a compound for 1.25 hours before stressing the cells with 2 mM dithiothreitol (DTT). After an additional 45 minutes (2 hours total) with compound and DTT, the cells are harvested with TRIZOL® (a mono-phasic solution of phenol and guanidine isothiocyanate), and total RNA is prepared as directed by the manufacturer (Invitrogen). Human XBP-1 is amplified by RT-PCR with the following primers, which flank the 26 base unconventional intron excised by IRE-1α:
RT-PCR of unstressed (U) cells then generates the upper band. When cells are stressed (S) with the endoplasmic reticulum (ER) stressing agent DTT, IRE-1α is activated due to accumulating unfolded protein and the resulting RT-PCR product is 26 base pairs shorter.
Compounds which pass specificity assays are assayed for cellular EC50 using endogenous XBP-1 splicing in myeloma cells. XBP-1 is regulated through the excision of a 26 nucleotide intron from the XBP-1 mRNA by the highly specific endoribonuclease activity of IRE-1α. […] This splicing event is used to measure IRE-1α activity on XBP-1 mRNA in cells and tissues.
Briefly, compounds are incubated in the presence or absence of an ER stress agent (e.g., DTT), and the ratio of XBP-1u (unspliced) to XBP-1s (spliced) is quantified by RT-PCR. The ED50 is determined as the 50% XBP-1s to total XPB-1 levels.

Sequence of IRE-1α (O75460 19-977): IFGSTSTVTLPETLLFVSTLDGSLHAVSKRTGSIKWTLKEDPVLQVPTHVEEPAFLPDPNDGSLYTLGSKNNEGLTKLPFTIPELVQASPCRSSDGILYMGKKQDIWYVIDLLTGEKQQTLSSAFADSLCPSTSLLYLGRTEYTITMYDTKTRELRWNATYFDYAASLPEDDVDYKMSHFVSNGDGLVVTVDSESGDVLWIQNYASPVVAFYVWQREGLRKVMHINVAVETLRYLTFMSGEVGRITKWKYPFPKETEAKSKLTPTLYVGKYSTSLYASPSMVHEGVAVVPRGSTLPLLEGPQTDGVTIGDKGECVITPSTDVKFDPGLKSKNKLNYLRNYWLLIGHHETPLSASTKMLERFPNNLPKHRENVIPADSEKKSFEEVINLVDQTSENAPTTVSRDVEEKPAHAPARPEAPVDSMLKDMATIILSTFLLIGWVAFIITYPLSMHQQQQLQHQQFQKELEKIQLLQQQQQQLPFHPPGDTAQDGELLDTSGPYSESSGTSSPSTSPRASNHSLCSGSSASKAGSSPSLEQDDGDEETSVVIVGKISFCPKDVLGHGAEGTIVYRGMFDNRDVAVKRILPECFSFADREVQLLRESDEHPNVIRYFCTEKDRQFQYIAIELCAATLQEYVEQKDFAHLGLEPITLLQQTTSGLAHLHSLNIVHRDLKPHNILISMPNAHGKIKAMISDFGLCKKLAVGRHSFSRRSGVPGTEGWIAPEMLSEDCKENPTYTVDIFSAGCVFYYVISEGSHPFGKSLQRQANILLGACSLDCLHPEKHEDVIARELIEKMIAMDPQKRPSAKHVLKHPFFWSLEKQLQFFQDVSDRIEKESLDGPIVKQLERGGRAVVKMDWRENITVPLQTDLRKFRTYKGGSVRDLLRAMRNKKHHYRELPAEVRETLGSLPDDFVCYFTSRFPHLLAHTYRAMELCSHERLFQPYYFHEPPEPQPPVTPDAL

Row | EC50 | SMILES
1 | < 10 µM | Cc1c(-c2ccc(C(=O)NCCN3CCOCC3)cc2)c(=O)oc2c(C=O)c(O)ccc12 [Example 3]
2 | > 10 µM | O=Cc1c(O)ccc2cc(C(=O)O)c(=O)oc12 [Example 8]
3 | < 10 µM | Cc1c(-c2cccc(C(=O)N3CCN(C)CC3)c2)c(=O)oc2c(C=O)c(O)ccc12 [Example 10]
4 | < 10 µM | Cc1c(-c2cccc(C(=O)NCCN3CCOCC3)c2)c(=O)oc2c(C=O)c(O)ccc12 [Example 11]
5 | < 10 µM | Cc1c(-c2ccc(C(=O)N3CCOCC3)cc2)c(=O)oc2c(C=O)c(O)ccc12 [Example 12]
6 | < 10 µM | Cc1c(-c2ccc(N3CCN(C)CC3)nc2)c(=O)oc2c(C=O)c(O)ccc12 [Example 14]
7 | < 10 µM | Cc1c(CCC(=O)N2CCN(C)CC2)c(=O)oc2c(C=O)c(O)ccc12 [Example 15]
8 | < 10 µM | Cc1c(-c2ccc(C(=O)N(C)C)cc2)c(=O)oc2c(C=O)c(O)ccc12 [Example 17]
9 | > 10 µM | Cc1c(-c2cccc(C(=O)N(C)C)c2)c(=O)oc2c(C=O)c(O)ccc12 [Example 20]
10 | < 10 µM | Cc1cc(=O)oc2c(C=O)c(O)c(Cl)cc12 [Example 22]
11 | > 10 µM | O=Cc1c(O)ccc2c1CCN(Cc1ccccc1)C2 [Example 28]
12 | > 10 µM | CN1CCN(C(=O)c2cnc(N3CCc4c(ccc(O)c4C=O)C3)s2)CC1 [Example 33]
13 | > 10 µM | Cc1nc(N2CCc3c(ccc(O)c3C=O)C2)sc1C(=O)NC1CCNCC1 [Example 35]
14 | > 10 µM | Cc1nc(N2CCc3c(ccc(O)c3C=O)C2)sc1C(=O)NC1CCN(C)CC1 [Example 36]
15 | > 10 µM | Cc1nc(N2CCc3c(ccc(O)c3C=O)C2)sc1C(=O)NCCN1CCOCC1 [Example 37]
16 | > 10 µM | CN1CCN(c2ncc(C(=O)N3CCc4c(ccc(O)c4C=O)C3)s2)CC1 [Example 38]
17 | > 10 µM | CCc1cc2c(=O)c(-c3nc(C)cs3)coc2c(C=O)c1O [Example 39]
18 | > 10 µM | O=Cc1c(O)ccc2c(=O)c(-c3cnn(-c4ccccc4)c3)coc12 [Example 40]
19 | < 10 µM | CN1CCN(C(=O)c2ccc(-c3ccc4c(C=O)c(O)ccc4n3)cc2)CC1 [Example 41]
20 | < 10 µM | CN1CCN(C(=O)c2cccc(-c3ccc4c(C=O)c(O)ccc4n3)c2)CC1 [Example 42]
21 | < 10 µM | O=Cc1c(O)ccc2nc(-c3ccc(C(=O)N4CCOCC4)cc3)ccc12 [Example 44]
22 | < 10 µM | O=Cc1c(O)ccc2nc(-c3ccc(C(=O)NCCN4CCOCC4)cc3)ccc12 [Example 45]
23 | < 10 µM | O=Cc1c(O)ccc2nc(-c3cccc(C(=O)NCCN4CCOCC4)c3)ccc12 [Example 46]
24 | > 10 µM | O=Cc1c(O)ccc2nc(SCC(=O)O)[nH]c12 [Example 63]
25 | > 10 µM | O=Cc1c(O)ccc2nc(-c3cccc(C(=O)O)c3)[nH]c12 [Example 64]
26 | < 10 µM | COC(=O)c1cccc(-c2nc3ccc(O)c(C=O)c3[nH]2)c1 [Example 65]
27 | > 10 µM | Cc1c(-c2ccc(C(=O)N3CCOCC3)cc2)c(=O)oc2c(C=O)c(O)c(Cl)cc12 [Example 67]

Row | EC50 | SMILES
28 | < 10 µM | CCOC(=O)c1sc(-c2cc3ccc(O)c(C=O)c3oc2=O)nc1C [Example 68]
29 | > 10 µM | Cc1c(CC(=O)O)c(=O)oc2c(C=O)c(O)ccc12 [Example 70]
30 | > 10 µM | Cc1oc2c(C=O)c(O)ccc2c(=O)c1CCC(=O)N1CCN(C)CC1 [Example 88]
31 | > 10 µM | COc1cc2c(=O)c(CCC(=O)NCCN3CCOCC3)c(C)oc2c(C=O)c1O [Example 93]
32 | > 10 µM | COc1cc2c(=O)c(CCC(=O)N3CCN(C)CC3)c(C)oc2c(C=O)c1O [Example 94]
33 | < 10 µM | CCOC(=O)c1cnc(-c2cc3ccc(O)c(C=O)c3oc2=O)s1 [Example 106]
34 | < 10 µM | CN1CCN(C(=O)c2cnc(-c3cc4ccc(O)c(C=O)c4oc3=O)s2)CC1 [Example 107]
35 | < 10 µM | Cc1nc(-c2cc3ccc(O)c(C=O)c3oc2=O)sc1C(=O)N1CCN(C)CC1 [Example 108]
36 | < 10 µM | Cc1nc(-c2cc3ccc(O)c(C=O)c3oc2=O)sc1C(=O)NCCN1CCOCC1 [Example 109]
37 | < 10 µM | Cc1nc(-c2c(C)c3ccc(O)c(C=O)c3oc2=O)sc1C(=O)N1CCN(C)CC1 [Example 110]
38 | < 10 µM | COc1cc2c(C)c(-c3ccc(C(=O)N4CCN(C)CC4)cc3)c(=O)oc2c(C=O)c1O [Example 111]
39 | < 10 µM | Cc1c(/C=C/C(=O)N2CCN(C)CC2)c(=O)oc2c(C=O)c(O)ccc12 [Example 112]
40 | < 10 µM | COc1cc2c(C)c(-c3ccc(N4CCN(C)CC4)nc3)c(=O)oc2c(C=O)c1O [Example 113]
41 | < 10 µM | COc1cc2c(C)c(-c3ccc(N4CCOCC4)nc3)c(=O)oc2c(C=O)c1O [Example 114]
42 | < 10 µM | COc1cc2c(C)c(-c3ccc(N(C)C)nc3)c(=O)oc2c(C=O)c1O [Example 115]
43 | < 10 µM | [2H]C(=O)c1c(O)ccc2c(C)c(-c3ccc(C(=O)NCCN4CCOCC4)cc3)c(=O)oc12 [Example 116]
44 | < 10 µM | CCc1cc2c(C)c(-c3ccc(C(=O)NCCN4CCOCC4)cc3)c(=O)oc2c(C=O)c1O [Example 117]
45 | < 10 µM | CCc1cc2c(C)c(-c3ccc(C(=O)NCCOC)cc3)c(=O)oc2c(C=O)c1O [Example 118]
46 | > 10 µM | CCc1cc2c(C)c(-c3ccc(C(=O)N4CCOCC4)cc3)c(=O)oc2c(C=O)c1O [Example 119]
47 | < 10 µM | COc1cc(O)c(C=O)c2oc(=O)cc(C)c12 [Example 120]
48 | < 10 µM | COCCOc1cc(O)c(C=O)c2oc(=O)cc(C)c12 [Example 121]
49 | < 10 µM | COCc1cc(=O)oc2c(C=O)c(O)cc(OC)c12 [Example 122]
50 | < 10 µM | COCCc1c(C)c2c(O)cc(O)c(C=O)c2oc1=O [Example 123]
51 | < 10 µM | COCCc1c(C)c2c(OC)cc(O)c(C=O)c2oc1=O [Example 124]
52 | < 10 µM | COCCc1c(C)c2cc(OC)c(O)c(C=O)c2oc1=O [Example 125]
53 | < 10 µM | C=CCc1c(C)c2c(OC)cc(O)c(C=O)c2oc1=O [Example 126]
54 | < 10 µM | COCCOCCc1c(C)c2cc(OC)c(O)c(C=O)c2oc1=O [Example 127]

Row | EC50 | SMILES
55 | < 10 µM | Cc1c(CC(=O)N2CCOCC2)c(=O)oc2c(C=O)c(O)ccc12 [Example 129]
56 | < 10 µM | CCOC(=O)Cc1c(C)c2cc(OC)c(O)c(C=O)c2oc1=O [Example 131]
57 | < 10 µM | COc1cc2c(CN3CCOCC3)c(C)c(=O)oc2c(C=O)c1O [Example 132]
58 | < 10 µM | COc1cc2c(CN(C)C)c(C)c(=O)oc2c(C=O)c1O [Example 133]
59 | < 10 µM | COc1cc(O)c(C=O)c2oc(=O)c(C)c(CN3CCOCC3)c12 [Example 134]
60 | < 10 µM | COc1cc(O)c(C=O)c2oc(=O)c(C)c(CN(C)C)c12 [Example 135]
61 | < 10 µM | COCc1cc(=O)oc2c(C=O)c(O)c(OC)cc12 [Example 136]
62 | < 10 µM | COCc1c(C)c(=O)oc2c(C=O)c(O)ccc12 [Example 137]
63 | > 10 µM | COCCNC(=O)CCc1c(COC)c2cc(OC)c(O)c(C=O)c2oc1=O [Example 138]
64 | < 10 µM | COCc1c(CCC(=O)N2CCOCC2)c(=O)oc2c(C=O)c(O)c(OC)cc12 [Example 139]
65 | > 10 µM | COCc1c(CCC(=O)NCCN2CCOCC2)c(=O)oc2c(C=O)c(O)c(OC)cc12 [Example 140]
66 | < 10 µM | COc1cc2c(C)c(-c3ccc(C(=O)N4CCN(C)CC4)s3)c(=O)oc2c(C=O)c1O [Example 141]
67 | < 10 µM | COc1cc2c(C)c(-c3ccc(C(=O)N4CCOCC4)s3)c(=O)oc2c(C=O)c1O [Example 142]
68 | < 10 µM | COc1cc2c(C)c(-c3ccc(C(=O)NCCN4CCOCC4)s3)c(=O)oc2c(C=O)c1O [Example 143]
69 | > 10 µM | CCOC(=O)CCc1c(C)c2cc(N(C)C(C)=O)c(O)c(C=O)c2oc1=O [Example 144]
70 | < 10 µM | COCCOCCc1c(C)c2c(OC)cc(O)c(C=O)c2oc1=O [Example 145]
71 | < 10 µM | COc1cc2c(C(C)C)cc(=O)oc2c(C=O)c1O [Example 146]
72 | > 10 µM | COc1cc2c(C)c(CCC(=O)NCCO)c(=O)oc2c(C=O)c1O [Example 147]
73 | > 10 µM | COc1cc2c(C)c(CC(=O)NCCO)c(=O)oc2c(C=O)c1O [Example 148]
74 | < 10 µM | COCOCCNC(=O)Cc1c(C)c2cc(OC)c(O)c(C=O)c2oc1=O [Example 149]
75 | > 10 µM | COCCNC(=O)c1ccc(-c2c(C)c3cc(Cl)c(O)c(C=O)c3oc2=O)cc1 [Example 150]
76 | > 10 µM | Cc1c(-c2ccc(C(=O)NCCN3CCOCC3)cc2)c(=O)oc2c(C=O)c(O)c(Cl)cc12 [Example 151]
77 | < 10 µM | COCCNC(=O)CCc1c(C)c2c(OCCOC)cc(O)c(C=O)c2oc1=O [Example 152]
78 | < 10 µM | COCCOc1cc(O)c(C=O)c2oc(=O)c(CCC(=O)N3CCOCC3)c(C)c12 [Example 153]
79 | < 10 µM | COCCOc1cc(O)c(C=O)c2oc(=O)c(CCC(=O)N3CCN(C)CC3)c(C)c12 [Example 154]
80 | < 10 µM | CCNC(=O)CCc1c(C)c2c(OCCOC)cc(O)c(C=O)c2oc1=O [Example 155]

Row | SMILES | EC50
81 | CC(C)c1cc(=O)oc2c(C=O)c(O)ccc12 [Example 5] | < 10 µM
82 | Cc1c(CC(=O)N2CCN(C)CC2)c(=O)oc2c(C=O)c(O)ccc12 [Example 130] | < 10 µM
